Experimental data published in article PMC8162731 (ACS chemical biology, 2020).

Biological target: SnDHAD (Synechocystis sp. PCC 6803, UniProt P74689)
Test: DHAD activity inhibition assay
Type: biochemical
Conditions: read-out: % inhibition at 0.5 mM

Chain of SnDHAD (P74689 whole entry): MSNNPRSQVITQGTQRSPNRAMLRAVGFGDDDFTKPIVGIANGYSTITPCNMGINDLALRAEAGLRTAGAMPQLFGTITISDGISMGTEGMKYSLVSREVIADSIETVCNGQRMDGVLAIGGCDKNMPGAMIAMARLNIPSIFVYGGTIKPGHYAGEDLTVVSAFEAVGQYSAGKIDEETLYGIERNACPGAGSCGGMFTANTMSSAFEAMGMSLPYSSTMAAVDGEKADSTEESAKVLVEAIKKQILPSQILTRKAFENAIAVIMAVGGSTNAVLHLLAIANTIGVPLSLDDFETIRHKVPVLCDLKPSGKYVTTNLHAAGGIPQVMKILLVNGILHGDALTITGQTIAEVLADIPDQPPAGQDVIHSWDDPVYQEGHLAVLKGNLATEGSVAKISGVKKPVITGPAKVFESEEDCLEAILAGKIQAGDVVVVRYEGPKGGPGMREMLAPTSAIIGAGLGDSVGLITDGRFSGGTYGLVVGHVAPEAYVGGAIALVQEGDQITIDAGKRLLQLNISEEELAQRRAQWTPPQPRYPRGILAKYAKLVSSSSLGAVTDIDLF

## O=C(O)C(O)C(=O)O [Tartronic acid]
  inhibition at 500 µM: ~35%
